Laboratory results published in US20080063699A1, “Method of Administering Cationic Liposomes Comprising an Active Drug” (priority 2003, published 2008).
Converted amounts (≈) assume the structure as drawn. “And” between values parts separate entries of the source, which are not always exact repeats. Equal entries are not always repeated. Where two headings read alike, the source gives them in different places.

What was measured:
[1] = system: Solid orthotopic L3.6pl pancreas tumor; assay: Anti-tumor efficacy in combination with gemcitabine (100 mg/kg); details: for final tumor volume compared to the control group: day 27, Gemzar 100 mg/kg i.p., MBT-0206/paclitaxel 5 mg/kg i.v.
Method: Tumor size of L3.6pI pancreatic tumors 19 days after start of treatment. Treatment with 10% trehalose, paclitaxel, MBT-0206, Gemzar (gemcitabine) and the combination of both MBT-0206 and Gemzar started 8 days after tumor cell inoculation. Gemzar was applied i.p. at a dose of 100 mg/kg bw twice a week (Mon, Thu). paclitaxel and MBT-0206 were applied i.v. on a Mon, Wed, Fri schedule at a paclitaxel dose of 5 mg/kg bw. The combination group received both MBT-0206 and Gemzar with the respective schedule. Tumors were measured by palpation with a calliper on day 23 and 27. Mean±SEM; n=9 per group.
Metastases at day 19 after start of treatment. Treatment with 10% trehalose, paclitaxel, MBT-0206, Gemzar (gemcitabine) and the combination of both MBT-0206 and Gemzar started at day 8 after tumor cell inoculation. Geinzar was applied i.p. at a dose of 100 mg/kg bw twice a week (Mon, Thu). paclitaxel and MBT-0206 were applied i.v. on a Mon, Wed, Fri schedule at a paclitaxel dose of 5 mg/kg bw. The combination group received both MBT-0206 and Gemzar with the respective schedule, n=9 per group.
Tumor volume palpated at day 23, 26 after inoculation and after harvesting
Necrospy after harvest at day 27

[2] = system: moderatly drug-resistant uterus sarcoma line Mes-SA/Dx-5; assay: Growth inhibitory assay (MTT, 72 h); assay type: cell-based, human
Method: (§1) FIG. 3-5: The growth inhibitory assay was performed in 24-well plates with each drug concentration tested in duplicate (n=2 wells). 4×10^4 cells per well were seeded into a 24-well plate and incubated over night. The following day, 10-11 concentrations of the respective drug formulation were added for 72 h to cover the range depicted in the respective graphs. Finally, the cell viability was determined by a standard MTT-assay measuring the activity of mitochondrial-dehydrogenases.
(§2) The highly paclitaxel resistant derivative cell line Mes-SA/Dx-5MBT was selected with increasing paclitaxel concentrations from the commercially available line Mes-SA/Dx-5 (ATCC, {Harker, 1986 #29}).

[3] = system: drug-sensitive human uterus sarcoma line Mes-SA; assay: Growth inhibitory assay (MTT, 72 h); assay type: cell-based; details: FIG. 5
Method: as §1
as §1, with “The” for “FIG. 3-5: The”, “mitochondrial dehydrogenases.” for “mitochondrial-dehydrogenases.”
as §2

Sk-Mel28 tumor = assay: Paclitaxel-resistant melanoma model with human skin transplants in vivo; design: species or system SCID mice; details: 12.5 mg/kg b.w. every second day
Method: (§3) 2. […] In vivo, these cells were injected into SCID mice bearing human skin transplants between human skin transplant and mouse acceptor skin. Treatments were started on day 17 after tumor cell injection and extended to day 28 with doses (12.5 mg/kg b.w.) every second day. The therapeutic potential of MBT-0206 and paclitaxel were compared on day 7 after start of treatments (see table below). […] Upon treatment with MBT-0206, tumors only marginally grew to about 1/10 the size of paclitaxel (paclitaxel)-treated tumors.
Mes-SA/Dx-5MBT tumor model: tumor volumes on day 23 after start of treatment (9 treatments, i.e. 3 per week, from day 12 to day 31 after tumor cell injection) Sk-Mel tumor model: tumor volumes on day 7 after start of treatment (6 treatments very other day, i.e. from day 17 to day 28 after tumor cell injection).

[4] = system: Solid orthotopic L3.6pl pancreas tumor; assay: Anti-tumor efficacy in combination with gemcitabine (50 mg/kg); assay type: in vivo; details: for tumor size: day 28 after tumor inoculation, after harvest
Text: • Species: male Balb/c nu/nu mice • Tumor model: Solid orthotopic L3.6pI pancreas tumor (highly mestastatic; Bruns C J, Harbison M T, Kuniyasu H, Eue I, Fidler I J. In vivo selection and characterization of metastatic variants from human pancreatic adenocarcinoma by using orthotopic implantation in nude mice. Neoplasia 1999; 1(1):50-62.) • Supplier: Charles River France
Tumor volume palpated at day 10, 12, 14, 17, 19, 21, 24 after inoculation and at day 26, 28 after harvesting
Necrospy after harvest at day 26 and 28

[5] = system: highly drug-resistant uterus sarcoma line Mes-SA/Dx-5MBT; assay: Growth inhibitory assay (MTT, 72 h); assay type: cell-based, human; details: for IC50: Homo sapiens, MES-SA
Method: as §1
as §1, with “The” for “FIG. 3-5: The”, “mitochondrial dehydrogenases.” for “mitochondrial-dehydrogenases.”
These cell lines were selected by stepwise increasing the concentration of paclitaxel in the culture medium.
as §2

[6] = system: highly drug-resistant murine colon carcinoma line Colon-26MBT; assay: Growth inhibitory assay (MTT, 72 h); assay type: cell-based; details: Mus musculus
Method: as §1, with “6-7:” for “3-5:”, “mitochondrial dehydrogenases.” for “mitochondrial-dehydrogenases.”

[7] = system: parental drug-sensitive murine colon carcinoma line Colon-26; assay: Growth inhibitory assay (MTT, 72 h); assay type: cell-based; details: FIG. 7
Method: as §1, with “6-7:” for “3-5:”, “mitochondrial dehydrogenases.” for “mitochondrial-dehydrogenases.”

[8] = system: drug-resistant human dermal melanoma line Sk-Mel28; assay: Growth inhibitory assay (MTT, 72 h); assay type: cell-based; details: SK-MEL-28, FIG. 10
Method: as §1, with “10: Inhibitory Potential of paclitaxel against the drug-resistant human dermal melanoma line Sk-Mel28.” for “3-5:”, “11” for “10-11”, “mitochondrial dehydrogenases.” for “mitochondrial-dehydrogenases.”
as §3

Row | Structure (SMILES) | final tumor volume compared to the control group [1] [%] | weight loss (body weight) ([1]; during the last 11 days) [%] | fold lower IC50 value than in Mes-SA/Dx-5MBT [2] | IC50 [3] [µg/mL] | effect on tumor development (Sk-Mel28 tumor) | tumor size [4] [mm^3] | IC50 (50% growth inhibition) ([5]; 72 h, MTT) [µg/mL] | fold increased paclitaxel tolerance compared to the parental line Mes-SA (by IC50 values) ([5]; FIG. 9) [fold] | IC50 ([5]; 72 h, MTT, read-out: IC50) [µg/mL] | IC50 ([5]; 72 h, MTT, read-out: IC50 (50% growth inhibition)) | IC50 ([6]; FIG. 6, read-out: IC50) [µg/mL] | IC50 ([6]; read-out: IC50 (50% growth inhibition)) | sensitivity of the line for MBT-0206 and paclitaxel [7] | IC50 [8] [µg/mL] | mortality at day 24 ([4]; n=9 per group, MBT-0206 5 mg/kg i.v., Gemzar 50 mg/kg i.p.) [animals dead]
1 | CC(=O)O[C@H]1C(=O)[C@@]2(C)[C@H]([C@H](OC(=O)c3ccccc3)[C@]3(O)C[C@H](OC(=O)[C@H](O)[C@@H](NC(=O)c4ccccc4)c4ccccc4)C(C)=C1C3(C)C)[C@]1(OC(C)=O)CO[C@@H]1C[C@@H]2O [paclitaxel] | 68 | 2 | approximately 7 fold | 0.0055 (≈ 0.00644 µM) | completely ineffective | 536 | 0.867 (≈ 1.02 µM) | ~150 | 0.87 (≈ 1.02 µM) | ~1 µM and ~0.867 µg/mL | ~5 (≈ 5.86 µM) | ~5 µM and ~5 µg/mL | equally sensitive | 5.8 (≈ 6.79 µM) | –
2 | Nc1ccn([C@@H]2O[C@H](CO)[C@@H](O)C2(F)F)c(=O)n1 [Gemzar, gemcitabine] | 47 | – | – | – | – | 398 | – | – | – | – | – | – | – | – | 1
